From article PMC12502564, “Evaluation of LLM-generated peptide as foundation template for discovery of effective encrypted AMPs against clinical superbugs” (Microbiology Spectrum, 2025)
Read-outs that look alike come from different tables or passages of the source. No end group written: not given here.

Tests used:
MRSA = assay: Time-kill curve; format: cell-based, methicillin-resistant Staphylococcus aureus; conditions: ~10^5 CFU mL^−1 in MH broth
Protocol: (§1) Bacteria in the logarithmic growth phase were diluted to approximately 10^5 CFU mL^−1 in MH broth and treated with peptides, polymyxin B, or vancomycin at final concentrations of 1/2 × MIC, 1 × MIC, 2 × MIC, and 4 × MIC. After the addition of the test compound, samples were taken at 0, 3, 6, 9, 12, and 24 h and serially diluted. Subsequently, 5 µL of the diluted samples were spread on agar plates and incubated at 37°C for 20 h. The bacterial concentration CFU mL^−1 at the corresponding time point of each sample was calculated based on the number of colonies on the agar plate, and the log10 (CFU mL^−1) was plotted against time (h).

MRSA 2210187 = format: cell-based, methicillin-resistant Staphylococcus aureus
Protocol: (§2) The MIC of all peptides was determined using the microdilution broth method in a 96-well plate. Peptides were dissolved in the DMSO with an initial concentration of 12,800 µg mL^−1. And cells of eight strains were separately suspended in the MHB at a density of approximately 10^5 CFU mL^−1. In the first column of the 96-well plate, 16 µL of peptide and 184 µL of MHB were added to each well to achieve a final concentration of 1,024 µg mL^−1. One-hundred microliters of MHB was added to each of the remaining wells. Then the first column of liquid was mixed well and diluted to the 12th column using the twofold dilution method. One-hundred microliters of prepared bacterial solution was added to all wells, and the 96-well plate was incubated at 37°C for 18–24 h. The MIC was defined as the concentration of the peptide in the well just preceding the first well showing visible turbidity. All experiments were performed in triplicate to ensure reliability.

CRAB 2210186 [1] = format: cell-based, carbapenem-resistant Acinetobacter baumannii
Protocol: as §2

A. baumannii ATCC19606 = format: cell-based, Acinetobacter baumannii
Protocol: as §2

E. coli ATCC25922 = format: cell-based, Escherichia coli
Protocol: as §2

CRKP 2403276 = format: cell-based, carbapenem-resistant K. pneumoniae
Protocol: as §2

[2] = test system: all eight bacterial strains; format: cell-based, gram-positive and gram-negative bacteria
Protocol: as §2

S. aureus ATCC25923 = format: cell-based, Staphylococcus aureus
Protocol: as §2

CRPA 2403282 = format: cell-based, carbapenem-resistant P. aeruginosa
Protocol: as §2

[3] = parameters: method as in earlier work; conditions: cited from earlier work
CRAB [4] = test system: CRAB; parameters: method as in earlier work; conditions: in vitro; cited from earlier work
Text: Using this validated AMP as a template, we performed sequence alignment with the National Center for Biotechnology Information (NCBI) database to identify encrypted AMPs.

CRAB [5] = assay: Drug resistance assay, 20 passages; format: cell-based, carbapenem-resistant Acinetobacter baumannii; conditions: 20 passages at 0.5-fold MIC, n = 3
Protocol: Resistance development assays were performed following previous report ([43]). CRAB was cultured overnight at 37°C at 160 rpm in LB. In wells of a 96-well polypropylene flat-bottom plate, 5 µL of the overnight bacterial culture (10^7 CFU mL^−1) was added to 100 µL of peptides/antibiotic solutions (with final concentrations of 0.25 to 512 µg mL^−1) in MHB. Plates were incubated for 18 to 20 h at 37°C. The MIC, the lowest concentration of peptides/antibiotic that caused lack of visible bacterial growth, was determined for each bacterial species. Thereafter, 5 µL of the growth at the 0.5-fold MIC suspension (10^7 CFU mL^−1) was added to a fresh medium containing peptides/antibiotic, and these mixtures were incubated as described above. This was repeated for 20 passages. All experiments were performed in triplicate to ensure reliability.

CRAB [6] = assay: Time-kill curve; format: cell-based, carbapenem-resistant Acinetobacter baumannii; conditions: ~10^5 CFU mL^−1 in MH broth
Protocol: as §1

CRAB [7] = assay: Biofilm formation inhibition assay (crystal violet); format: cell-based, carbapenem-resistant Acinetobacter baumannii; conditions: 1/2 × MIC, 24 h, OD570
Protocol: The crystal violet staining method ([66]) was used to determine the inhibitory activity of the compounds against the biofilm formation of CRAB. The steps were as follows: prepare a bacterial solution (10^6 CFU mL^−1), mix it with different final concentrations of the compound (1/2 × MIC, 1 × MIC, 2 × MIC, and 4 × MIC), and culture it for 24 h. After discarding the supernatant, wash with PBS, add anhydrous methanol to fix the biofilm, and then stain it with crystal violet for 60 min after drying. After washing, dissolve the biofilm with 33% glacial acetic acid, and measure OD570. Three parallel experiments were performed, and the biofilm formation inhibition rate was calculated by the following formula:
(3) Biofilm formation inhibition rate (%)=(1−OD(sample)− OD(blank)/OD(negative)− OD(blank))×100%

CRAB [8] = assay: PI assay, cytoplasmic membrane integrity; format: cell-based, carbapenem-resistant Acinetobacter baumannii; conditions: 10 × MIC, 10^8 CFU mL^−1
Protocol: PI (which is known to stain nuclear chromatin upon cell membrane disruption) assay was carried out to evaluate the ability of AMPs to disrupt the cytoplasmic membrane integrity ([63]). After CRAB was grown to the exponential phase, bacteria cells were harvested and washed three times in washing buffer of 5 mM glucose and 5 mM HEPES (1:1, pH = 7.2) and then re-adjusted to 10^8 CFU mL^−1 in the same buffer. Bacterial suspensions (150 µL/well) were loaded into black-walled, clear-bottom 96-well plates with lids. Following bacterial loading, 50 µL of 10 µM PI was introduced into each well, with 30 min pre-incubation CRAB. Post-incubation fluorescence signals were acquired using 535 nm excitation and 617 nm emission wavelengths. Compounds (10 µL) were then administered to achieve 1 × MIC/10 × MIC-equivalent final concentrations in the dye-loaded bacterial suspensions. Real-time fluorescence monitoring was performed with continuous acquisition during the first 10 min, followed by measurements at 10-min intervals. Negative controls received 10 µL sterile water in lieu of antimicrobial peptides while maintaining equivalent pre-incubation conditions. All experimental conditions were executed with three biological replicates.

CRAB 2210186 [9] = assay: Thigh infection mouse model; format: in vivo, BALB/c mice; conditions: neutropenic mice, ~1 × 10^6 CFU in thigh, i.p. at 1, 3, 5, 7 h post-infection (PL-15 10 × MIC, 100 µL; polymyxin B 20,000–25,000 U kg^−1 day^−1), n = 8
Text: The WHO has classified CRAB as a “Critical Priority” pathogen in its Priority Pathogens List, recognizing it as a predominant causative agent of hospital-acquired infections ([2]). This classification reflects CRAB’s global dissemination, high mortality rates, and extreme resistance profiles. Given this critical situation, a thigh infection model was employed to evaluate the in vivo therapeutic efficacy of PL-15 against CRAB. To establish the mouse thigh infection model, mice were pre-treated intraperitoneally with cyclophosphamide 4 days and 1 day prior to bacterial inoculation to induce neutropenia, administered at doses of 150 mg kg^−1 and 100 mg kg^−1, respectively ([51]). Each mouse was then injected with approximately 10^6 colony-forming unit (CFU) of CRAB in the thigh tissue, followed by four intraperitoneal injections of PL-15, polymyxin B, or phosphate-buffered saline (PBS) within 24 h of infection (Fig. 3a).
All animal experiments were performed according to the “Principles of Laboratory Animal Care” (NIH publication No. 86-23, revised 1985) and approved by the Animal Care and Use Committee of Shandong University (LL20240622, Jinan, China). Five-week-old male BALB/c mice were purchased from Beijing Vital River Laboratory Animal Technology Co., Ltd. (Beijing, China) and kept under a 12-hour light/12-hour dark cycle, humidity of 50%, and temperature of 22°C in standard specific pathogen-free individually vented cages.
To establish the mouse thigh infection model, mice were injected intraperitoneally with cyclophosphamide 4 d and 1 d before bacterial administration, at concentrations of 150 and 100 mg kg^−1, respectively, to induce neutropenia ([51]). CRAB 2210186 cells were suspended in sterile PBS, adjusted to a concentration of ~1 × 10^6 CFU per infection site and injected into the right thighs of eight mice per treatment group. PL-15 (10 × MIC, 100 µL), polymyxin B (20,000–25,000 U kg^−1 day^−1) or PBS were administered intraperitoneally at 1, 3, 5, and 7 h post-infection. Mice were euthanized 24 h after infection, and the thigh tissues were aseptically collected, weighed, homogenized, serially diluted in PBS, and plated onto solid MCA. The CFU of CRAB 2210186 per thigh was calculated by plating dilutions of the thigh homogenates (0.25 g of thigh tissue in 10 mL sterile PBS) on agar plates and counting colonies.

[10] = MHB, ~10^5 CFU mL^−1, 37°C, 18–24 h, triplicate

With `CN[C@H](CC(C)C)C(=O)N[C@H]1C(=O)N[C@@H](CC(N)=O)C(=O)N[C@H]2C(=O)N[C@H]3C(=O)N[C@H](C(=O)N[C@H](C(=O)O)c4cc(O)cc(O)c4-c4cc3ccc4O)[C@H](O)c3ccc(c(Cl)c3)Oc3cc2cc(c3O[C@@H]2O[C@H](CO)[C@@H](O)[C@H](O)[C@H]2O[C@H]2C[C@](C)(N)[C@H](O)[C@H](C)O2)Oc2ccc(cc2Cl)[C@H]1O` [vancomycin, reference compound] the “time to complete bacterial eradication of MRSA” value (MRSA; 1 × MIC) was no more than 6 h, the “time to full bacterial killing of MRSA” value (MRSA; 2 × MIC) was no more than 3 h and the “time to full bacterial killing of MRSA” value (MRSA; 4 × MIC) was no more than 3 h.
In the case of GIGKFLKKAKKFGKAFVKILKK-NH2 [pexiganan], the MIC (MRSA 2210187; [10]) is reported as “below 8 µg mL^−1” and the MIC (CRAB 2210186 [1]) is reported as “below 8 µg mL^−1”.
In the case of GIWKTIKSMGKVFAGKILQNL-NH2 [[D4K]B2RP], the MIC (MRSA 2210187; 2210187) is reported as “below 8 µg mL^−1” and the MIC (CRAB 2210186 [1]) is reported as “below 8 µg mL^−1”.
In the case of GLGSLLGKAFKIGLKTVGKMMGGAPREQ [CPF-B1], the MIC (MRSA 2210187; [10]) is reported as “below 8 µg mL^−1” and the MIC (CRAB 2210186 [1]; [10]) is reported as “below 8 µg mL^−1”.
For GLLKPLLKIAAKVGSNLL-NH2 [[G4K]XT-7], the MIC (MRSA 2210187; 2210187) was “below 8 µg mL^−1” and the MIC (CRAB 2210186 [1]) was “below 8 µg mL^−1”.
With GVIKSVLKGVAKTVALGML-NH2 [B2RP-Era] the MIC (MRSA 2210187; 2210187) was “below 8 µg mL^−1” and the MIC (CRAB 2210186 [1]) was “below 8 µg mL^−1”.
With “ILGKLLKTAAKLLSNL [[S7K,G11K]alyteserin-2a]” the MIC (MRSA 2210187; 2210187) was “below 8 µg mL^−1” and the MIC (CRAB 2210186 [1]; [10]) was “below 8 µg mL^−1”.
For “LKLSPKTKDTLKKVLKGAIKGAIAIASMA-NH2 [hymenochirin-1Pa]”, the MIC (MRSA 2210187; 2210187) was “below 8 µg mL^−1” and the MIC (CRAB 2210186 [1]) was “below 8 µg mL^−1”.
For WLKKILAWLKKKW [BR-13], the MIC (A. baumannii ATCC19606) was “lower than 11 µg mL^−1”, the MIC (E. coli ATCC25922) was “lower than 11 µg mL^−1” and the MIC (MRSA 2210187; 2210187) was 3.33 mg/L. The MIC (CRKP 2403276) was “lower than 11 µg mL^−1”, the “MIC for all tested bacteria” value [2] was no more than 64 mg/L and the antimicrobial spectrum ([2]; judged from MICs on eight strains) was “broad-spectrum antimicrobial properties”. For the same compound, the MIC (S. aureus ATCC25923) was “lower than 11 µg mL^−1”, the MIC (CRAB 2210186 [1]) was 18.67 mg/L and the MIC (CRPA 2403282) was 64 mg/L.
In the case of “WLKKILKWLKW [g_AMP41, short peptide … generated by AMPGenix, used as template]”, the “efficacy in treating infections in vivo” value [3] is listed as “suboptimal efficacy” and the MIC (CRAB [4]) is listed as 8 mg/L.
For polymyxin B [reference compound], the “MIC change after serial passaging” value (CRAB [5]) was 64 fold, the “time to complete bacterial eradication of CRAB” value (CRAB [6]; 2 × MIC) was 6 h and the “time to kill CRAB” value (CRAB [6]; 4 × MIC) was no more than 3 h. The biofilm formation inhibition (CRAB [7]) was “moderate biofilm inhibition”, the “PI fluorescence (cytoplasmic membrane integrity)” value (CRAB [8]) was “strongest fluorescence response” and the “reduction of bacterial load compared to the PBS control group” value (CRAB 2210186 [9]; 24 h) was “two orders of magnitude”. The “bacteria eradicated in the thigh tissue within 24 h” value (CRAB 2210186 [9]) was “over 97%”.
